pEC50: −log10 of the molar value.
molecular target: T1, TDO2 (Homo sapiens, UniProt P48775); test: TDO2 cell assay (NFK GreenScreen, SW48 cells); type: cell-based; details: SW48 cells (high TDO expressing), 200 uM tryptophan, 24 hours; Table 3; read-out: TDO2 Cell Fluor EC50
T1 construct: decreased levels of NFK in SW48 cells (high TDO expressing cells)
T1 sequence (P48775 whole entry): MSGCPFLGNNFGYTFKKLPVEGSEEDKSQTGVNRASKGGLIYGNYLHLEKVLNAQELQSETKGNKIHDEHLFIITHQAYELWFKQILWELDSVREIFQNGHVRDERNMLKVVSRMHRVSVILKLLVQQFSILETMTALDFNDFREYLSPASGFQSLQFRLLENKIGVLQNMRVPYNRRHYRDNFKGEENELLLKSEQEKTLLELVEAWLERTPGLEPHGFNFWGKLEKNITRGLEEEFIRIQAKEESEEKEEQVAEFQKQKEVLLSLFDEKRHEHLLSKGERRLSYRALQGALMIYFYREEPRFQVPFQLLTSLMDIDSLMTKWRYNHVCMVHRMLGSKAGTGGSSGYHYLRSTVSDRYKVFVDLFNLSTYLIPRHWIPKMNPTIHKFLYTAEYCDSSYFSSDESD

| pEC50 | SMILES |
| --- | --- |
| 6.00 | Nc1cc2n(n1)CCC(C1c3ccccc3-c3cncn31)C2O (single isomer, unassigned) [Example 161c] |
| < 4.60 | O[C@H]1c2ncsc2CC[C@@H]1[C@@H]1c2ccccc2-c2cncn21 [Example 125a, (4R,5R)-5-((R)-5H-imidazo[5,1-a]isoindol-5-yl)-4,5,6,7-tetrahydrobenzo[d]thiazol-4-ol] |
| < 4.60 | OC1c2ccnn2CCCC1C1c2ccccc2-c2cncn21 (single isomer, unassigned) [Example 133h] |
| 5.43 | OC1C(C2c3ccc(F)cc3-c3cncn32)CC12CCOCC2 (single isomer, unassigned) [Example 109d] |
| 6.60 | N#Cc1cnn2c1C(O)C(C1c3ccccc3-c3cncn31)CC2 (single isomer, unassigned) [Example 156e] |
| 6.66 | CCS(=O)(=O)N1CCC2(CC1)CC(C1c3ccccc3-c3cncn31)C2O (single isomer, unassigned) [Example 114d] |
| < 4.60 | NS(=O)(=O)N1CCC(O)C(C2c3ccccc3-c3cncn32)CC1 (single isomer, unassigned) [Example 101c, 4-hydroxy-5-(5H-imidazo[5,1-a]isoindol-5-yl)azepane-1-sulfonamide] |
| 5.52 | NS(=O)(=O)N1CCC2(CC1)CC(C1c3ccccc3-c3cncn31)C2O (single isomer, unassigned) [Example 181d] |
| 6.49 | OC1c2ccccc2CCC1C1c2ccccc2-c2cncn21 (single isomer, unassigned) [Example 102c] |
| < 4.60 | OC1c2nonc2CCC1C1c2ccccc2-c2cncn21 (single isomer, unassigned) [Example 163f] |
| < 4.60 | N#Cc1cnc2c(c1)CCC(C1c3ccccc3-c3cncn31)C2O (single isomer, unassigned) [Example 107b] |
| 6.04 | NC(=O)c1ccc2c(c1)C(O)C(C1c3ccccc3-c3cncn31)CC2 (single isomer, unassigned) [Example 122f] |
| 5.96 | CS(=O)(=O)N1CCC[C@](O)([C@@H]2c3ccccc3-c3cncn32)C1 [Example 134a, (R)-3-((S)-5H-imidazo[5,1-a]isoindol-5-yl)-1-(methylsulfonyl)piperidin-3-ol] |
| 6.62 | OC1c2cc(CF)nn2CCC1C1c2ccccc2-c2cncn21 (single isomer, unassigned) [Example 95b] |
| 5.66 | NC(=O)c1ccc2c(n1)CCC(C1c3ccccc3-c3cncn31)C2O (single isomer, unassigned) [Example 104a] |
| 6.89 | OC1c2cncnc2CCC1C1c2ccccc2-c2cncn21 (single isomer, unassigned) [Example 94d] |
| 5.89 | N#Cc1ccc2c(c1)[C@H](O)[C@H]([C@@H]1c3ccccc3-c3cncn31)CC2 (stereo in doubt) [Example 113e, (7S,8R)-8-hydroxy-7-((R)-5H-imidazo[5,1-a]isoindol-5-yl)-5,6,7,8-tetrahydronaphthalene-2-carbonitrile] |
| 4.62 | NC(=O)c1nc2c(s1)CCC(C1c3ccccc3-c3cncn31)C2O (single isomer, unassigned) [Example 149h] |
| < 4.60 | Nc1ncc2c(n1)CCC(C1c3ccccc3-c3cncn31)C2O (single isomer, unassigned) [Example 111g] |
| 4.80 | CC(O)(c1ncc[nH]1)C1c2ccccc2-c2cncn21 (single isomer, unassigned) [Example 143c] |
| 6.96 | O[C@H]1CC(CF)(CF)[C@H]1[C@@H]1c2ccccc2-c2cncn21 [Example 150c, (1S,2S)-3,3-bis(fluoromethyl)-2-((R)-5H-imidazo[5,1-a]isoindol-5-yl)cyclobutan-1-ol] |
| < 4.60 | CS(=O)(=O)N1CCC(C2c3ccc(F)cc3-c3cncn32)C(O)C1 (single isomer, unassigned) [Example 119a] |
| < 4.60 | OC1(C2c3ccccc3-c3cncn32)CCCc2ccncc21 (single isomer, unassigned) [Example 141c] |
| < 4.60 | O[C@@H](C1CCCCC1)[C@@H]1c2ccccc2-c2cncn21 (single isomer, unassigned) [Example 148d] |
| < 4.60 | N#Cc1cnn2c1[C@@H](O)[C@@H]([C@H]1c3ccccc3-c3cncn31)CC2 (single isomer, unassigned) [Example 156d] |
| 4.85 | O[C@H](C1CCCCC1)[C@@H]1c2ccccc2-c2cncn21 [Example 148a, (R)-cyclohexyl((S)-5H-imidazo[5,1-a]isoindol-5-yl)methanol] |
| 6.19 | Cn1cc2c(n1)CCC(C1c3ccccc3-c3cncn31)C2O (single isomer, unassigned) [Example 130b] |

The remaining lines, values behind:

| SMILES | pEC50 |
| --- | --- |
| O=c1cccc2n1CCC(C1c3ccccc3-c3cncn31)C2O (single isomer, unassigned) [Example 29d, 1-hydroxy-2-(5H-imidazo[5,1-a]isoindol-5-yl)-3,4-dihydro-1H-quinolizin-6(2H)-one] | 5.24 |
| OC1CCCC1C1c2ccc(F)cc2-c2cncn21 (single isomer, unassigned) [Example 20a] | < 4.60 |
| CC1(O)CCOCC1C1c2ccccc2-c2cncn21 (single isomer, unassigned) [Example 61b] | 5.59 |
| O[C@@H]1CCC(F)(F)C[C@@H]1[C@H]1c2ccccc2-c2cncn21 (single isomer, unassigned) [Example 18b] | 7.21 |
| OC1c2cncn2CCC1C1c2ccccc2-c2cncn21 (single isomer, unassigned) [Example 07f] | < 4.60 |
| CN(C)S(=O)(=O)N1CC[C@H]([C@H]2c3ccccc3-c3cncn32)[C@@H](O)C1 [Example 78a] | 5.35 |
| NS(=O)(=O)N1CC(O)C(C2c3ccccc3-c3cncn32)C1 (single isomer, unassigned) [Example 28d] | < 4.60 |
| OC1CCCCC1C1c2ccc(F)cc2-c2cncn21 (single isomer, unassigned) [Example 25c] | 4.70 |
| OC1CCCC1C1c2ccccc2-c2cncn21 (single isomer, unassigned) [Example 02e] | 4.77 |
| O=S1(=O)CC(O)C(C2c3ccccc3-c3cncn32)C1 (single isomer, unassigned) [Example 38b] | 6.82 |
| CC(C)(C)OC(=O)N1CC2(CC(C3c4ccccc4-c4cncn43)C2O)C1 (single isomer, unassigned) [Example 41c, tert-butyl 7-hydroxy-6-(5H-imidazo[1,5-b]isoindol-5-yl)-2-azaspiro[3.3]heptane-2-carboxylate] | 4.64 |
| OC1COCCC1C1c2c(Cl)cccc2-c2cncn21 (single isomer, unassigned) [Example 69-1c] | < 4.60 |
| CCS(=O)(=O)N1CC(O)C(C2c3ccccc3-c3cncn32)C1 (single isomer, unassigned) [Example 40c] | < 4.60 |
| O=c1cccc2n1CCC(C1c3ccccc3-c3cncn31)C2O (single isomer, unassigned) [Example 29e, 1-hydroxy-2-(5H-imidazo[5,1-a]isoindol-5-yl)-3,4-dihydro-1H-quinolizin-6(2H)-one] | 6.36 |
| OC1c2cccnc2CCC1C1c2ccccc2-c2cncn21 (single isomer, unassigned) [Example 31c] | 4.77 |
| OC1c2nccn2CCC1C1c2ccccc2-c2cncn21 (single isomer, unassigned) [Example 88g] | 6.14 |
| O=S(=O)(C1CC1)N1CC[C@@H](O)[C@H]([C@H]2c3ccccc3-c3cncn32)C1 (single isomer, unassigned) [Example 70b] | 5.96 |

| SMILES | pEC50 |
| --- | --- |
| O[C@@H]1CCC(F)(F)C[C@@H]1[C@@H]1c2ccccc2-c2cncn21 [Example 18e, (1R,2R)-4,4-difluoro-2-((R)-5H-imidazo[5,1-a]isoindol-5-yl)cyclohexan-1-ol] | 5.12 |
| CCS(=O)(=O)N1CCC2(CCC(C3c4ccccc4-c4cncn43)C2O)CC1 (single isomer, unassigned) [Example 76c] | 7.15 |
| CC1(C)CC(O)C1C1c2ccccc2-c2cncn21 (single isomer, unassigned) [Example 22d] | 5.16 |
| N#Cc1ccc2c(c1)CCC(C1c3ccccc3-c3cncn31)C2O (single isomer, unassigned) [Example 62b] | 6.51 |
| OC1COCCC1C1c2cc(F)ccc2-c2cncn21 (single isomer, unassigned) [Example 75-1d] | < 4.60 |
| OC1CCC(F)(F)CC1C1c2ccccc2-c2cncn21 (single isomer, unassigned) [Example 18h, 4,4-difluoro-2-(5H-imidazo[5,1-a]isoindol-5-yl)cyclohexan-1-ol] | 4.89 |
| CC1(C)CCCC(C2c3ccccc3-c3cncn32)C1O (single isomer, unassigned) [Example 24e] | 6.89 |
| CC1(O)CCC1C1c2ccccc2-c2cncn21 (single isomer, unassigned) [Example 35c] | < 4.60 |
| CC(C)(C)OC(=O)N1CC[C@@H](O)[C@H]([C@H]2c3ccccc3-c3cncn32)C1 [Example 11a, (3S,4R)-tert-butyl 4-hydroxy-3-((S)-5H-imidazo[5,1-a]isoindol-5-yl)piperidine-1-carboxylate] | 4.82 |
| CC(=O)N1CCC(O)C(C2c3ccccc3-c3cncn32)C1 (single isomer, unassigned) [Example 12b] | < 4.60 |
| OC1COCCC1C1c2c(Cl)cccc2-c2cncn21 (single isomer, unassigned) [Example 69-1d] | 5.34 |
| OC1c2nccn2CCC1C1c2ccccc2-c2cncn21 (single isomer, unassigned) [Example 88e] | < 4.60 |
| OC1COCC1C1c2ccc(F)cc2-c2cncn21 (single isomer, unassigned) [Example 30d] | < 4.60 |
| O[C@H]1c2ccncc2CC[C@H]1[C@@H]1c2ccccc2-c2cncn21 (single isomer, unassigned) [Example 08c] | 5.28 |
| CS(=O)(=O)c1ccc2c(c1)OCC(C1c3ccccc3-c3cncn31)C2O (single isomer, unassigned) [Example 91e] | 5.21 |
| OC1CC2(COC2)C1C1c2ccccc2-c2cncn21 (single isomer, unassigned) [Example 87h] | 4.96 |
